The values that follow come from patent US20210106674A1, “Gene Therapy For Mesothelioma” (The Trustees of the University of Pennsylvania, priority 2019, published 2021).

The test system of experiment [1] is MPM. As to the kind of experiment: Recent published trials of chemotherapy in MPM (historical comparison). Type of experiment: in vivo. To be noted: average of three published trials of pemetrexed re-treatment (103 patients).
In experiment [2] the test system is MPM. To be noted: published trial, Pem re-treat with pem; cited from earlier work.
Experiment [3] concerns serum mesothelin-related protein (SMRP). Briefly: ELISA of serum mesothelin-related protein (SMRP). The experiment is classed as in vivo, Human. To be noted: compared to baseline. An excerpt: See Supplemental Methods for details.
Experiment [4] has as its system purified mesothelin and extracts from allogeneic mesothelioma cell lines. Briefly: Immunoblotting with patient serum for induced anti-tumor antibodies. Type of experiment: in vivo, Human. Set-up: key to Antibody Response: 0 = no change; 1 = marginal changes; 2 = significant changes. The protocol: Enzyme-linked immunosorbent assays (ELISAs) were used to measure IFN-α2b levels (PBL Biomedical Labs; Piscataway, N.J.), as well as serum mesothelin-related protein (SMRP) levels (Fujirebio, Inc., Malvern, Pa.). Neutralizing adenovirus antibody titers (Nabs) were assessed as previously described (5). To detect induced humoral responses against tumor antigens, we performed immunoblotting against purified mesothelin and extracts from allogeneic mesothelioma cell lines using pre- and post-treatment serum as previously described (4-6). See Supplemental Methods for details.
To detect induced humoral responses against tumor antigens, we performed immunoblotting against purified mesothelin and extracts from allogeneic mesothelioma cell lines. Purified mesothelin was purchased from Raybiotech (Norcross, Ga.). Cell lines were derived from patient pleural fluid samples from previous clinical trials and were grown in culture as previously described (Sterman D H, Reico A, Haas A R, et al. A phase I trial of repeated Intrapleural adenoviral-mediated interferon-beta gene transfer for mesothelioma and metastatic pleural effusion. Mol Ther 2010; 18: 852-60). Extracts from cells or purified proteins were prepared and immunoblotted with patient serum (diluted at 1:1500) from time points before treatment, and 6 weeks after treatment as previously described (Sterman et al., 2010). Multiple exposures were obtained and comparisons were made on the exposures in which the major bands detected on pre-treatment blots were of equal intensity in post-treatment blots.
The blots were semi-quantitatively scored as follows: 0=no change in any bands; 1=minimal changes (i.e. increased intensity in one or two bands); 2=clear increases in >2 bands or appearance of new bands.
For orientation: In western blotting, separated proteins are transferred to a membrane and probed.

The next experiment deals with CD8 T cells and NK cells. As to the kind of experiment: Flow cytometry of PBMC: CD69 on CD8 T cells and NK cells. Type of experiment: in vivo, Human. The protocol: PBMCs were studied from a set of six patients who responded to therapy and 6 patients who progressed with treatment (Table 6).
PBMC were thawed and the activation of natural killer cell (NK) and T cells was assessed using flow cytometry as detailed in the Supplemental Methods (see also Ref 19).
All mAbs were from BD Biosciences (San Diego, Calif.) and R&D systems (Minneapolis, Minn., USA).
Details of the cell preparation and staining have been previously published (Stevenson J P, Kindler H L, Papasavvas E, et al. Immunological effects of anti-transforming growth factor-beta (TGF-beta) antibody GC1008 in cancer patients with malignant pleural mesothelioma (MPM). Oncoimmunology 2013; 8:e26218). Analysis was done by collecting 100,000 live lymphocytes (defined by size and granularity in FSC and SSC). Dead cells were excluded by manual gating in FSC/SSC. Detection thresholds were set according to isotype-matched negative controls. Results were expressed as Mean Fluorescent Intensity (MFI) and percent (%) of lymphocytes, NK cells (Lin3-CD56dimCD16+), CD3+CD4+ or CD3+CD8+ T cells. Data analysis was performed using FloJo software (Tree Star, San Carlos, Calif.).
Data were described as medians, 25th and 75th percentiles. Comparisons between responders (n=6) and non-responders (n=6) at each time point were done using Wilcoxon Kruskal-Wallis tests (Rank Sums). Differences between time points for all patients (n=12) were tested using Wilcoxon Signed-Rank or paired t-tests depending on data distribution, while differences between time points in responders (n=6) and in non-responders (n=6) were tested using Wilcoxon Signed-Rank. p values that were less than 0.05 were considered statistically significant. All statistics used JMP Pro11®.

Setting [5] is: post-treatment serum, 39 patients analysed.

Marks after values point to notes of the source that are not given here.

As to `Nc1nc2[nH]cc(CCc3ccc(C(=O)N[C@@H](CCC(=O)O)C(=O)O)cc3)c2c(=O)[nH]1` [pem, pemetrexed], in the experiment with MPM [1], the “Median OS, Average” value was 11.7 mo; the “Response rate, Average” value was found to be 18%; the “TTP/PFS, Average” value is reported as 5.1 mo. Further, the “2 yr OS” value in the experiment with MPM [2] is 30%).

In the case of nadofaragene firadenovec [Ad.IFN], in experiment [3] (at some time point), the “patients with a greater than 20% decrease in SMRP level” value was 15 of the 27 patients. The “patients with more than a 20% increase in SMRP level” value in experiment [3] is 12 of the 27 patients. The “Antibody Response” value in experiment [4] (patient 402) is reported as 2; in experiment [4] (patient 404) it was 0; in experiment [4] (patient 405), 2; in experiment [4] (patient 406), 1; in experiment [4] (patient 411), 0; in experiment [4] (patient 416) it was 0. Besides, the “Antibody Response” value in experiment [4] (patient 417) stood at 2; in experiment [4] (patient 421), 2; in experiment [4] (patient 422), 2; in experiment [4] (patient 423) it was 1; in experiment [4] (patient 425), 1; in experiment [4] (patient 429), 1. For the same compound, in experiment [4] (setting [5]), the “patients with clear increases in anti-tumor bands” value is reported as 14 patients. Further, in experiment [4] (setting [5]), the “patients with minimal changes in tumor bands” value is 14 patients. Besides, the “patients with no changes in number or intensity of anti-tumor immunoblot bands” value in experiment [4] (setting [5]) is 11 patients. Also, the “CD8 T Cells: % Positive for CD69” value with CD8 T cells and NK cells (Good Responders, D 2, median) is recorded as 26.6 (IQR: 23.2- %; with CD8 T cells and NK cells (Good Responders, D 15, median) it was 16.6 (IQR: 11.5- %; in the experiment on CD8 T cells and NK cells (Poor Responders, D 2, median), 22.1 (IQR: 9.9- %; in the experiment on CD8 T cells and NK cells (Poor Responders, D 15, median), 14.9 (IQR: 10.5- %. In addition, the “NK Cells: % Positive for CD69” value was 66.6* (IQR: 42.1- % in the experiment with CD8 T cells and NK cells (Good Responders, D 2, median, p = 0.03 vs Baseline); 20.9 (IQR: 5.8- % in the experiment on CD8 T cells and NK cells (Good Responders, D 15, median); 33.3 (IQR: 22.8- % with CD8 T cells and NK cells (Poor Responders, D 2, median); 22.7 (IQR: 13.2- % in the experiment with CD8 T cells and NK cells (Poor Responders, D 15, median).
